From patent publication US10765690B2, “TLR4 agonists and compositions thereof and their use in the treatment of cancer” (GlaxoSmithKline Intellectual Property Development Limited, priority 2015, dated 2020)
Values joined by “and” are separate entries in the source; they are usually repeats but may differ in a detail not shown here. Equal values may be shown once.

System: Murine CT-26 colon carcinoma cells
Experiment: CT-26 syngeneic colon carcinoma model, intratumoral or intravenous monotherapy (Example 10, studies 1-3)
Format: in vivo, Balb/c mice
Procedure: The in vivo anti-tumor efficacy of the TLR4 agonist (CRX-601) was assessed in the murine CT-26 colon carcinoma syngeneic solid tumor model as a monotherapy and in combination with […] a therapeutic antibody (combination data not shown). Seven to eight week old female Balb/c mice (BALB/cAnNCrl, Charles River) were used in these studies. Murine CT-26 colon carcinoma cells (ATCC catalog number CRL-2638 lot #59227052) were cultured in RPMI growth medium supplemented with 10% fetal bovine serum (FBS) in a humidified 37° C. incubator with 5% CO2, CT-26 cells cultured in logarithmic growth were harvested from tissue culture flasks and centrifuged for 5 minutes at 450×g at 4° C. for ten minutes to pellet cells. The supernatant was discarded, and cells were washed in ice cold phosphate buffered saline (PBS) without calcium and magnesium and centrifuged again for 5 minutes at 450×g at 4° C. for ten minutes to pellet cells. The cells were resuspended in sterile RPMI media without FBS and adjusted to a cell concentration of 500,000 cells/ml, 100 μl of the cell stock was implanted via subcutaneous injection into the right flank of each Balb/c mouse. After ten or eleven days when the average tumor size reached approximately 100 mm^3, mice were randomized into study cohorts according to tumor size and the first treatment dose was given. The TLR4 agonist (CRX-601) or vehicle was dosed via a systemic intravenous or direct intratumoral injection as indicated. The CRX-601 vehicle used for intravenous and intratumoral dosing was […] where indicated. For CRX-601 liposomal intratumoral dosing, a DOPC/CHOL liposome prepared by GSK Lot #1783-157-B was used. The therapeutic antibody was dosed via an intraperitoneal injection given twice per week for a total of six doses. Caliper measurements were taken three times per week to assess tumor growth, and mice with tumors <2,000 mm^3 were maintained on study from 30 up to approximately 115 days. Mice with tumors >2,000 mm^3 for 2 consecutive measurements or mice with tumors which formed open ulcers were removed from the study. Tumor volume was calculated using the formula (0.52)×(Length)×(Width^2). In study 3, tumor-free mice were re-challenged with CT-26 tumor cells as described above, on the opposite flank from the original inoculation site and tumor growth was monitored, as described above. All studies were conducted in accordance with the GSK Policy on the Care, Welfare and Treatment of Laboratory Animals and were reviewed by the Institutional Animal Care and Use Committee at GSK.
For studies 1 and 2, to determine significance of tumor growth inhibition, tumor volumes at 11 study 1) or 15 (study 2) days after first dose were compared between the different treatment groups. Prior to the analysis, tumor volumes were natural log transformed due to the inequality of variance in the different treatment groups. ANOVA followed by pair-wise comparison was then carried out on the log transformed data. SAS 9.3 and R 3.0.2 analysis software was used. Kaplan-Meier (KM) method was carried out to estimate the survival probability of different treatment groups at a given time. The event for survival analysis was tumor volume of 2000 mm^3 or tumor ulceration, whichever came first. The exact time to cut-off volume was estimated by fitting a linear line between log tumor volume and day of two observations, the first observation that exceed the cut-off volume and the one observation that immediately preceded the cut-off volume. The median time to endpoint and its corresponding 95% confidence interval was calculated. Whether or not KM survival curves were statistically different between any two groups was then tested by log-rank test. The raw p-value, as well as the false discovery rate (FDR) adjusted p-values, from the comparisons of days to events by survival analysis and the comparisons of log transformed tumor volume at indicated days between treatment groups was determined. […]

CCCCCCCCCCC[C@H](CC(=O)N[C@H]1[C@H](OC[C@H](NC(=O)C[C@@H](CCCCCCCCCCC)OCCCCCCCCCC)C(=O)O)O[C@H](CO)[C@@H](OP(=O)(O)O)[C@@H]1OC(=O)C[C@@H](CCCCCCCCCCC)OCCCCCCCCCC)OCCCCCCCCCC [CRX-601]
tumor status of single mouse remaining on study (study 1, 10 ug intratumoral group, day 42): tumor-free
tumor growth inhibition compared to vehicle (study 1, 10 ug/mouse intratumoral twice per week, 6 doses, 11 days after the initial dose, p-values 0.05): statistically significant
tumor-free mice among mice remaining on study (study 1, 50 ug intratumoral group, day 42): Three of the four
tumor volume of remaining tumor-bearing mouse (study 1, 50 ug intratumoral group, fourth mouse, day 42): 854.19 mm^3
increase in survival compared to vehicle (study 1, 50 ug intratumoral single dose, by day 42 post CT26 inoculation, p-values<=0.05): statistically significant
tumor growth inhibition compared to vehicle (study 1, 50 ug/mouse intratumoral single dose, 11 days after the initial dose, p-values 0.05): statistically significant
anti-tumor activity (tumor growth inhibition over time) (study 1, intratumoral dosing 0.1, 1, 10 ug/mouse twice per week x6 or 50 ug single dose): dose-dependent anti-tumor activity
tumor volume of single mouse remaining on study (study 2, 10 ug intravenous group, day 32): 188.0 mm^3
tumor growth inhibition compared to vehicle (study 2, 10 ug/mouse intravenous twice per week, 6 doses, 15 days after the initial dose, p-values<=0.05): statistically significant
tumor-free mice among mice remaining on study (study 2, 100 ug intravenous group, day 32): One of the three
tumor volumes of remaining tumor-bearing mice (study 2, 100 ug intravenous group, day 32, individual mice): 1500.49 mm^3 and 962.61 mm^3
increase in survival compared to vehicle (study 2, 100 ug intravenous single dose, day 32 post CT-26 inoculation, p-values<=0.05): statistically significant increase
tumor growth inhibition compared to vehicle (study 2, 100 ug/mouse intravenous single dose, 15 days after the initial dose, p-values<=0.05): statistically significant
anti-tumor activity (tumor growth inhibition over time) (study 2, intravenous dosing 1, 10 ug/mouse twice per week x6 or 100 ug single dose): dose-dependent anti-tumor activity
CT26 tumor growth on re-challenge (study 3, fully regressed tumor-free mice re-challenged on day 80, opposite flank, vs naive control mice): rejected with no tumor growth
mice showing full tumor regressions (study 3 Group 2, 25 ug/mouse IV once per week x3): 5 out of 10
increase in survival compared to control Group 1 (study 3 Group 2, 25 ug/mouse IV once per week x3, 80 days after the first dose, p-values<=0.05): statistically significant
tumor growth inhibition compared to control Group 1 (study 3 Group 2, 25 ug/mouse intravenous in 0.5% Glycerol/4% dextrose once per week x3 (+Rat IgG1), 12 days after the initial dose, p-values<=0.05): statistically significant
increase in survival compared to control Group 5 (study 3 Group 7, 25 ug/mouse intratumoral DOPC/CHOL liposome once per week x3, 80 days after the first dose, p-values<=0.05): statistically significant
tumor growth inhibition compared to control Group 5 (study 3 Group 7, 25 ug/mouse intratumoral in DOPC/CHOL liposome once per week x3 (+Rat IgG1), 12 days after the initial dose, p-values<=0.05): statistically significant
